“Also recorded” adds a separate entry of the source. A value given as a limit tells only on which side of the number the result lay.

By melting point is commonly meant the temperature of the solid-liquid transition. For orientation: inhibition means the drop in the measured response relative to a control, in per cent.

A short description of data set [1]: inflow through in vitro model of the choroidal epithelium (blood/cerebrospinal fluid barrier). It counts as in vitro ADME. The conditions noted are these: rat; basolateral exposure at 150 μm for 60 minutes, 37° C.; read-out: penetration rate of the peripheral blood compartment towards the brain compartment. On the procedure: A study was conducted with the BIP platform (Centre de Recherche en Neurosciences de Lyon, Lyons, France) for comparing the inflow of four compounds of interest through the cerebrospinal liquid/blood barrier. The study was carried out with an in vitro model of the choroidal epithelium restoring this interface. Choroidal cells were exposed by their basolateral pole to the compounds at a concentration of 150 μm for 60 minutes. The permeability of the cell monolayers to saccharose was analyzed in terms of these transfers, in order to detect possible toxicity of the compounds.
The epithelial cells are isolated from the choroidal plexus of a lateral ventricle taken on newly born rats as described earlier. The cells are sown on microporous supports (Transwell PC, pore size 0.4 μm, surface area […], diameter 6.5 mm), and cultivated in DMEM-F12 (1:1) supplemented with 10% FCS, 2 mM glutamine and 50 μg/ml gentamycin, as well as with various growth factors. The medium is renewed every two days until the day of experiment.
The transfer measurements were conducted under kinetic conditions (3 phases), with stirring (200 rpm), at 37° C., in a Ringer-Hepes buffer (RH). The volumes used in both compartments during the transfer are adjusted so as to minimize any hydrostatic pressure effect. The inserts are rinsed in RH before initiating the permeability study. For each compound, the transfer is carried out in parallel on three laminin inserts (without any cell) and three inserts with a cell monolayer.
Inflow measurements (from blood to the cerebrospinal fluid) were conducted during a kinetic study (20 min periods) for the four compounds of interest. Briefly, the compound of interest, diluted to 150 μm in RH is placed in the lower compartment of a multi-well cultivation plate, which reproduces the blood compartment. Transfer is initiated by placing a culture insert containing RH in the upper compartment, which corresponds to the cerebrospinal fluid. At regular intervals, an aliquot of the upper medium is taken and replaced with an equivalent volume of preheated RH at 37° C. […] The samples taken are analyzed by high performance liquid chromatography (HPLC) on an LC10 Shimadzu system chain (Duisburg, Germany), equipped with a spectrophotometric detector.
At the end of the transfer of the compounds of interest, [^14C]-saccharose is added as an aliquot into the upper compartment of the inserts. […] The media sampled in the wells and in the inserts at the end of the transfer of saccharose are analyzed by liquid scintillator counting in a β Canberra Packard TRI-GARB 1600TR counter. […]
The permeability coefficient of the cell monolayer Pe (in cm·min^−1) is calculated from the PS determined on laminin filters and filters with cells and by taking into account the exchange surface area. […]

In data set [2] the test system is extracellular glutamate (Glu) and aspartate (Asp) levels, striatum. Briefly: in vivo intracerebral microdialysis: extracellular glutamate and aspartate levels in striatum. More on the design: species or system rat (Wistar). The conditions noted are these: for effect on extracellular Glu and Asp levels: 1 mmol/L by reverse microdialysis, striatum, anesthetized rats; for action on glutamate when the glutamate levels are high: rat brain, initial glutamate level high, notably greater than 10 μmol/L; for Effect on Glu end/or Asp: striatum of anesthetized rats, reverse microdialysis; for effect of co-administration of CNQX on the compound's effects: compound at 1 mmol/L co-administered with CNQX, Asp levels are increased. From the text:
One of the widespread methodological approaches, both in academic laboratories and in industrial laboratories, and used for following the extracellular concentrations of glutamate (Glu) and of aspartate (Asp) before, during and after administration of pharmacological agents targeting their receptors is intracerebral microdialysis. This type of test was therefore used, in order to track the in vivo effects of the molecules according to the invention as compared with those of kainic acid, for which the synthesized molecules are structural analogues (substituted pyrrolidines).
Concentric microdialysis probes with a regenerated cellulose membrane (Spectra/Por hollow fiber; molecular cut off 6,000 Da, 225 μm in external diameter, a length of 3 mm, Spectrum Medical Industries, Los Angeles, Calif., USA) and tubings in molten silica (40 μm i.d×105 μm o.d., Polymicro Technology, Phoenix, Ariz., USA) were manufactured according to a design already published (Bert et al 1996, [26]). They were perfused with a flow rate of 1 μl/min with artificial cerebrospinal fluid or CSF (145.0 mM NaCl; […]; 1.0 mM MgCl2; 1.2 mM CaCl2; 0.45 mM NaH2PO4; 1.55 mM Na2HPO4; pH 7.4) by means of a Harvard pump (Model 22, South Natick, Mass., USA).
The in vivo microdialysis experiments were conducted on male rats of the Wistar strain with an average weight of about 300 g, (provider: Charles River, L'Arbresle, France) anesthetized with urethane (a dose of 1.4 g/kg via an i.p, route, provider: Sigma-Aldrich, St. Louis, Mo., USA). The probes were implanted dorso lateral striatum according to the following stereotaxic coordinates relatively to the bregma: antero-posteriority 0 mm, laterality […], depth […] under the cortical surface. The dialysates (samples) were collected from the beginning of the 4th hour after implantation of the probe. The samples were taken every 5 minutes in PCR tubes of 200 μl (Axygene, Union City, Calif., USA) and immediately frozen at −20° C. The samples were analyzed subsequently in order to determine the glutamate and aspartate contents. The pharmacological agents and the compounds according to the invention were administered in situ by reverse microdialysis by changing the perfusion at the inlet of the probe of the CSF without any pharmacological agent to the one containing the pharmacological agent(s) (Bert et al., 2002 [27]; Parrot et al 2003 [28]).
CE analyses were carried out with a P/ACE MDQ system (Beckman-Coulter, Fullerton, Calif., USA) equipped with an external detector LIF ZETALIF (Picometrics, Toulouse, France). Detection was achieved by fluorescence at a wavelength of 442 nm and generated with a He—Cd laser Omnichrome (Chino, Calif., USA). The emission intensity was collected at 490 nm. Before analysis, the samples were derived with naphthalene-2,3-dicarboxaldehyde with cyanide ions as a nucleophilic agent (pH 8.7; borate buffer 500 mM). The separations were conducted in a capillary of molten silica with an internal diameter of […] and an outer diameter of 375 μm with a length of 63 cm, with a useful length of 52 cm (Polymicro Technology) by using the procedure entirely detailed and validated earlier (Sauvinet et al., 2003 [29] Bert et al., 2002 (271). The Glu and Asp concentrations measured in striatum samples were above detection limits and were determined by interpolation by means of standard ranges.
All the reagents of the neurochemical study (except for the compound according to the invention) were purchased from Sigma-Aldrich (St Louis, Mo., USA). The mother-solutions of the synthesized molecules, of the kainate (KA, agonist of the KA receptors for glutamate), CNQX, 6-cyano-7-nitroquinoxaline-2,3(1H,4H)-dione (CAS-No. 115066-14-3, antagonist of KA receptors), from Glu and Asp were aliquoted to 1 or 0.1 mM and stored at −30° C. After their administration, the tested pharmacological agents were diluted in artificial CSF. […]

Data set [3] addresses CB1 (receptors of type 1 to endocannabinoids, CB-1) (Homo sapiens, UniProt P21554). The data set can be described thus: in vitro specific binding inhibition (radioligand, 60 receptors). The conditions noted are these: n = 2, read-out: % of inhibition of the control specific binding at 10 μM, CB1 towards its agonistic ligand. The procedure: In order to determine the target receptors of the compounds according to the invention, experiments of specific binding inhibition were conducted in vitro. Pharmacology in vitro: tests of specific bindings.
Sixty receptors were tested in the study according to standardized methods by using their specific radioligand as reported earlier.
The results may be expressed as a % of the specific control bond [(measured specific bond/control specific bond)×100] and as a % of inhibition of the specific control bond [100−(measured specific bond/control specific bond)×100] obtained in the presence of one of the two tested compounds (I.2 and I.4).
These experiments (Table 2 hereafter) have shown that the compounds I.2 and I.4 modify the specific binding of a control agonist of the receptors of type 1 to endocannabinoids (CB-1) (according to the test described in reference).

The subject of data set [4] is glutamate levels in the striatum. The conditions noted are these: ex vivo and in vivo preparations, refs [89-92]; cited from earlier work.

CB1 (receptors of type 1 to endocannabinoids, CB-1), sequence (P21554 whole entry): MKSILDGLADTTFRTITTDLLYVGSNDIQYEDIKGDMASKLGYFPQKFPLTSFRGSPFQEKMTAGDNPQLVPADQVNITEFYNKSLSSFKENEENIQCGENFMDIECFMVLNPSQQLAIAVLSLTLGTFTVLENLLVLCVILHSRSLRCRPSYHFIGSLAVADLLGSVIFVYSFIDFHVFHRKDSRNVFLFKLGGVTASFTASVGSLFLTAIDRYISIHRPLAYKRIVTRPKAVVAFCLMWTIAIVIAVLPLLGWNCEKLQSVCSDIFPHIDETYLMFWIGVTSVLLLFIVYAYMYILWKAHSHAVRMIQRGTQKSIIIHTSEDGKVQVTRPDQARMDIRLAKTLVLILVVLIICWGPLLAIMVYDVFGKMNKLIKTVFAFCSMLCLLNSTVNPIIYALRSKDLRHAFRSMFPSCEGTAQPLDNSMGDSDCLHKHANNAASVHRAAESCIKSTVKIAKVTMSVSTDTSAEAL

The molecule `CN[C@H](C(=O)O)[C@H]1CNC[C@H]1O` (racemic) [Compound I.5, (3,4-cis).α-N-methylamino-(4-hydroxy-pyrrolidin-3-yl)acetic acid] returned a melting point of 192 °C.
Regarding `N[C@H](C(=O)O)[C@H]1CNC[C@H]1O` [Compound I.1, (αS,3R,4S) α-amino-(4-hydroxy-pyrrolidin-3-yl)acetic acid], the Papp B→A at 60 min, 150 μm in data set [1] is ≤ 5 ×10⁻⁶ cm/s. In addition, in data set [2], the “effect on extracellular Glu and Asp levels” value is reported as “effects similar to KA”; the “action on glutamate when the glutamate levels are high” value (“action on glutamate” below) is listed as “inhibitory actions on the glutamate”. Further, in data set [2] (summary of preliminary results), the “Pharmacological potentiality for modulating the Glu system” value (“Pharmacological potentiality” for short) is listed as “Yes” and the “Effect on Glu end/or Asp” value is “Yes”.
As to `N[C@@H](C(=O)O)[C@@H]1CNC[C@@H]1O` [Compound I.2, (αR,3S,4R) α-amino-(4-hydroxy-pyrrolidin-3-yl)acetic acid], in data set [1], the Papp B→A at 60 min, 150 μm is ≤ 5 ×10⁻⁶ cm/s. The inhibition at 10 µM in data set [3] was 29%. Moreover, in data set [2], the “effect on extracellular Glu and Asp levels” value was “a reduction in the Glu and Asp levels; also recorded: a reduction in the cerebral extracellular glutamate levels”; the “effect of co-administration of CNQX on the compound's effects” value (from here on “effect of co-administration of CNQX”) is “seems to partly attenuate its effects”; the “action on glutamate” value is “inhibitory actions on the glutamate”. In addition, in data set [2] (summary of preliminary results), the “Pharmacological potentiality” value was “Yes” and the “Effect on Glu end/or Asp” value is on record as “Yes”. In addition, the “Action through the KA receptors” value in data set [2] (summary of preliminary results, co-administration of CNQX (antagonist of KA receptors)) was “yes for Asp”.
Regarding `CNC(=O)[C@H](NC(C)=O)[C@@H]1CNC[C@@H]1O` [Compound I.3, α-acetamido-(4-hydroxy-pyrrolidin-3-yl)-N-methylacetamide(αR,3S,4R)], in data set [1], the Papp B→A at 60 min, 150 μm is ≤ 5 ×10⁻⁶ cm/s. Besides, in data set [2], the “effect on extracellular Glu and Asp levels” value is reported as “an effect similar to that of kainate”; the “effect of co-administration of CNQX” value is recorded as “seems to partly attenuate its effects”; the “action on glutamate” value was “inhibitory actions on the glutamate”. In data set [2] (summary of preliminary results), the “Pharmacological potentiality” value is reported as “yes” and the “Effect on Glu end/or Asp” value is “yes”.
In the case of `CNC(=O)[C@@H](N)[C@H]1CNC[C@H]1O` [Compound I.4, .-amino-(4-hydroxy-pyrrolidin-3-yl)-N-methylacetamide(αS,3R,4S)], in data set [1], the Papp B→A at 60 min, 150 μm was ≤ 5 ×10⁻⁶ cm/s. Further, in data set [3], the inhibition at 10 µM is 29%. In data set [2], the “effect on extracellular Glu and Asp levels” value was “a reduction in the Glu and Asp levels; also recorded: a reduction in the cerebral extracellular glutamate levels”; the “effect of co-administration of CNQX” value is “seems to partly attenuate its effects”; the “action on glutamate” value was “inhibitory actions on the glutamate”. In addition, in data set [2] (summary of preliminary results), the “Pharmacological potentiality” value is reported as “yes” and the “Effect on Glu end/or Asp” value was “yes”.
In the case of `C=C(C)[C@H]1CN[C@H](C(=O)O)[C@H]1CC(=O)O` [KA, kainate, reference compound], in data set [2], the “effect on extracellular Glu and Asp levels” value is given as “affected”.
With `Cc1c(C(=O)c2cccc3ccccc23)c2cccc3c2n1[C@H](CN1CCOCC1)CO3` [WIN 55, 212-2], the “effect on glutamate levels in the striatum” value in data set [4] is on record as “induces a reduction in the glutamate levels”.
`Cc1c(C(=O)NN2CCCCC2)nn(-c2ccc(Cl)cc2Cl)c1-c1ccc(Cl)cc1` [rimonabant]: in data set [4], the “effect on glutamate levels in the striatum” value is “cause an increase or do not affect the extracellular glutamate levels”.

Values taken from patent US9199931B2, “Pyrrolidine derivatives” (UNIVERSITE CLAUDE BERNARD LYON I, priority 2012, dated 2015).
